Paper PMC5159558 (Nucleic Acids Research, 2016)

Assays:
RET1ΔNC = biological target: T1, RET1ΔNC (Trypanosoma brucei, UniProt Q8WQX5); experiment: X-ray crystal structure, […] Å; format: binding; details: 0.5 mM UMPnPP, 1 mM MgCl2; active site; non-hydrolysable UTP analogue
T1 sequence (Q8WQX5 189-699): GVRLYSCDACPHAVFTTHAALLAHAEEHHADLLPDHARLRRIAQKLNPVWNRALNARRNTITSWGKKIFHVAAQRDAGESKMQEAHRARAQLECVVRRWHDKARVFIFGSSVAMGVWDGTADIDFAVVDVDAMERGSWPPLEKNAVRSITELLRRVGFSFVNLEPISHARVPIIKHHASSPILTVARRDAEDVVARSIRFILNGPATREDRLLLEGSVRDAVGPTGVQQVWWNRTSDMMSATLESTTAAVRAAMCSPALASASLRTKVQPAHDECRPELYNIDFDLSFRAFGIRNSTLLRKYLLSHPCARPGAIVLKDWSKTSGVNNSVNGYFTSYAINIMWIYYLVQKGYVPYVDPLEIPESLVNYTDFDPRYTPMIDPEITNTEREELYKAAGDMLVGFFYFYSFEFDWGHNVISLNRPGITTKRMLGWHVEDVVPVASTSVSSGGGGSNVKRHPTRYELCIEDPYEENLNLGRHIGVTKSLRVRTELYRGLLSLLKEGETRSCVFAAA

TUT4 = biological target: T2, TUT4 (Trypanosoma brucei, UniProt Q381M1); experiment: X-ray crystal structure, […] Å; format: binding; details: Mg2+
T2 sequence (Q381M1 1-333): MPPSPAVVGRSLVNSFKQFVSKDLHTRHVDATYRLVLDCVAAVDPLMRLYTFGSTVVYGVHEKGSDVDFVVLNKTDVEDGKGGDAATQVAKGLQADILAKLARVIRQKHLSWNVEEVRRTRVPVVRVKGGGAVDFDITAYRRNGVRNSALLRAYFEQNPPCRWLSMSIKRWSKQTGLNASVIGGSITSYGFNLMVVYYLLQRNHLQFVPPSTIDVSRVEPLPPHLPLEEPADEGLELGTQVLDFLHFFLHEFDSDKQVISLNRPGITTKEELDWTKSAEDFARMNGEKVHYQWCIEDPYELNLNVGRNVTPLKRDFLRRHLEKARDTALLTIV

Structure (SMILES): O=c1ccn([C@@H]2O[C@H](COP(=O)(O)NP(=O)(O)OP(=O)(O)O)[C@@H](O)[C@H]2O)c(=O)[nH]1 [UMPnPP]
- X-ray crystal structure, 1.8 Å (soaked crystals) (RET1ΔNC): Crystals of RET1ΔNC in complex with the UTP analog UMPNPP were obtained by soaking

Structure (SMILES): O=c1ccn([C@@H]2O[C@H](COP(=O)(O)OP(=O)(O)OP(=O)(O)O)[C@@H](O)[C@H]2O)c(=O)[nH]1 [UTP]
- X-ray crystal structure, 2.75 Å (TUT4; ternary complex with UpU, co-crystallised with UTP): structure of TUT4 from T. brucei with bound UTP and RNA-mimicking dinucleotide UpU

Structure (SMILES): O=c1ccn([C@@H]2O[C@H](COP(=O)(O)O[C@H]3[C@@H](O)[C@H](n4ccc(=O)[nH]c4=O)O[C@@H]3CO)[C@@H](O)[C@H]2O)c(=O)[nH]1 [UpU]
- X-ray crystal structure, 2.75 Å (TUT4; ternary complex with UTP, crystals soaked in 1 mM UpU): structure of TUT4 from T. brucei with bound UTP and RNA-mimicking dinucleotide UpU
